Earlier results, collected in patent US20260355230A1, “SODIUM BICARBONATE PRODUCT FOR CHILDBIRTH LABOR” (LAMINARIA GROUP AB, priority 2023, published 2026).

Legend:
[1] = 4.26 g sodium bicarbonate dissolved in water, oral
[2] = large amounts, particularly as an aqueous solution

O=C([O-])O.[Na+] [sodium bicarbonate]
pH in maternal blood [1]: increased significantly | fetal outcome ([1]; vs untreated group): a difference in fetal outcome was shown between the two groups | frequency of spontaneous vaginal deliveries ([1]; vs untreated group): substantially higher | AFL levels ([1]; vs untreated group, AFL >10.1 mmol/L): fell significantly | gastrointestinal side-effect [2]: acute gastrointestinal (GI) distress
